Measured values: patent publication US4842847A, “Dental calculus inhibiting compositions” (The B. F. Goodrich Company, priority 1987, dated 1989)
Like-named read-outs stand apart in the source and are kept apart here.

Conditions: pyrophosphate 25 ppm; for Time of Crystal Growth Inhibition: no anticalculus agent, pH 7.20, 25° C.
Method: The in vitro formation of hydroxyapatite (HAP) was measured titrimetrically using the pH - stat method described in Example I, above.
The pyrophosphate was used at the level of 25 ppm.

effectiveness of pyrophosphate when incubated with enzyme (in words) (absence of anticalculus agent polymer, with enzyme): drastically reduced
Compound: O=P(O)(O)OP(=O)(O)O [pyrophosphate]
Time of Crystal Growth Inhibition (pyrophosphatase No): 30 min | Time of Crystal Growth Inhibition (pyrophosphatase Yes): 11 min | delay of HAP formation (in words) (no enzyme): significantly delays HAP forma;tion
